For orientation: inhibition means the relative decrease from the control value, in per cent. As a reminder, the solubility (thermodynamic) is solubility found after equilibrating the solid with the medium. The half-life is how long it takes for the measured level to halve. The low end stands for rapid decline, the high end for slow decline. For orientation: clearance means the volume of plasma or blood freed of the substance per unit of time. High values mean efficient removal, low ones inefficient removal. By Cmax is commonly meant the peak of the concentration-time curve. By bioavailability is commonly meant dose-corrected exposure relative to a reference, in per cent. What is called IC50 is the point on the concentration scale where inhibition reaches its midpoint. Low values mean higher potency, high ones lower potency.

In brackets after ≈: the same amount, converted by molar mass. Some results are limits rather than exact numbers.

In data set [1] the target is T1, Nuclear receptor ROR-gamma (Homo sapiens) (UniProt P51449).
T1 sequence (whole entry): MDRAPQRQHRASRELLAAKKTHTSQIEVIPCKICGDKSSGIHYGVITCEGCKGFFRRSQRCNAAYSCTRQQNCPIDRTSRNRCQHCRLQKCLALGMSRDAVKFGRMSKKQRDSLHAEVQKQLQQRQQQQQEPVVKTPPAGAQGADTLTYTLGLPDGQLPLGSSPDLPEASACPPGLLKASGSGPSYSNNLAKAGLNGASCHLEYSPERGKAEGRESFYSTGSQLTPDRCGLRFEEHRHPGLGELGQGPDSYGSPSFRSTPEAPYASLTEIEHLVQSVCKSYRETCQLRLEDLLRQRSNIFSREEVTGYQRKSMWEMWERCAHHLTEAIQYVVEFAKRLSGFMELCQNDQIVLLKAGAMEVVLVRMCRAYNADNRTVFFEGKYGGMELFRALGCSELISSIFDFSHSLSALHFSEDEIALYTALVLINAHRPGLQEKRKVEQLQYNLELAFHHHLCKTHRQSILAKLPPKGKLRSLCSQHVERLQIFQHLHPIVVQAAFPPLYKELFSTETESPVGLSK
The experiment in a line: Inverse agonist activity at GAL4-DNA binding domain-fused human full length RORgammat expressed in pGL4.31 transfected HEK293T cells assessed as inhibition of RORGgammat driven transcriptional activity at 2 uM after 24 hrs by luciferase reporter gene assay relative to control. The format is cell-based. Background: A reporter such as luciferase makes a cellular process visible.

Data set [2] is described as follows: Equilibrium aqueous solubility of the compound at pH 7. Type of data set: physicochemical.
Data set [3] can be described thus: Equilibrium aqueous solubility of the compound at pH 2. Type of data set: physicochemical.
A short description of data set [4]: Half life in rat at 1 mg/kg, iv. To be noted: in vivo. The format is ADME, organism-based.
The nature of data set [5]: Volume of distribution at steady state in rat at 1 mg/kg, iv. Type of data set: ADME, organism-based. To be noted: in vivo, read-out: Vdss.
Data set [6] in a line: Clearance in rat at 1 mg/kg, iv. To be noted: in vivo. Type of data set: ADME, organism-based.
A short description of data set [7]: Cmax in rat at 5 mg/kg, po. The format is ADME, organism-based. More on the design: dose 5 mg/kg, route oral. The conditions noted are these: in vivo.
The nature of data set [8]: Half life in rat at 5 mg/kg, po. To be noted: in vivo. Type of data set: ADME, organism-based.
Data set [9] in a line: Oral bioavailability in rat at 5 mg/kg. To be noted: in vivo.
Data set [10] can be described thus: in vitro. To be noted: human, liver microsomes.
Description: Extraction ratio in human liver microsomes
Data set [11] deals with T2, Nuclear receptor ROR-gamma (Homo sapiens, UniProt P51449).
T2 sequence (P51449 whole entry): T1 sequence (whole entry)

The nature of data set [12]: in vitro. The conditions noted are these: rat, liver microsomes. Background: Liver microsomes are vesicles of endoplasmic reticulum, rich in cytochrome P450 enzymes.
Description: Extraction ratio in rat liver microsomes
The target in data set [13] is T1, Nuclear receptor ROR-gamma (Homo sapiens). The experiment in a line: Inverse agonist activity at GAL4-DNA binding domain-fused human full length RORgammat expressed in pGL4.31 transfected HEK293T cells assessed as inhibition of RORGgammat driven transcriptional activity at 3 uM after 24 hrs by dual-luciferase reporter gene assay relative to control. Type of data set: cell-based.

Data set [14] has the same target. In words: Inverse agonist activity at GAL4-DNA binding domain-fused human RORgammat LBD expressed in pGL4.31 transfected HEK293T cells assessed as inhibition of RORGgammat driven transcriptional activity at 1 uM after 24 hrs by dual-luciferase reporter gene assay relative to control. Type of data set: cell-based.

Consider `COc1nc2ccc([C@](O)(c3ccnc(C(F)(F)F)c3)c3cnc(C)n3C)cc2c(Cl)c1CN1CCC(C(F)(F)F)CC1`, for which the inhibition in [1] is 101%. In addition, the results for the solubility (thermodynamic) in [2] and in data set [3] were under 4 µM and over 400 µM, respectively.

As to `COc1nc2ccc(C(O)(c3ccc(C)nc3C)c3cnnn3C)cc2c(Cl)c1CN1CCC(F)CC1` (stereo not given), the solubility (thermodynamic) is 100 µM (≈ 52.5 µg/mL) in data set [2] and over 400 µM in data set [3].

Take `COc1nc2ccc(C(O)(c3ccc(C)nc3C)c3cnnn3C)cc2c(Cl)c1CN1CCC(n2cccn2)CC1` (stereo not given): the thermodynamic solubility is 30 µM (≈ 17.2 µg/mL) in data set [2] and over 400 µM in data set [3].

`COc1nc2ccc(C(O)(c3ccc(C)nc3C)c3cnnn3C)cc2c(Cl)c1CN1CCC(C(F)(F)F)CC1` (stereo not given): the solubility (thermodynamic) in [2] was under 1 µM; in [3] it was over 400 µM.

Consider `COc1nc2ccc(C(O)(c3ccc(C)nc3C)c3cnnn3C)cc2c(Cl)c1CN1CCC(F)(F)CC1` (stereo not given), for which the figures for the solubility (thermodynamic) in [2] and in data set [3] were under 4 µM and over 400 µM, respectively.

As to `COc1nc2ccc(C(O)(c3ccnc(C(F)(F)F)c3)c3cnnn3C)cc2c(Cl)c1CN1CCC(C(F)(F)F)CC1` (stereo not given), the inhibition in data set [1] stood at 100%. For the same molecule, the figures for the thermodynamic solubility in [2] and in data set [3] were under 4 µM and over 400 µM, respectively.

Turning to `COc1nc2ccc(C(O)(c3ccc(C)nc3C)c3cnnn3C)cc2c(Cl)c1OC1CCOCC1` (stereo not given), the solubility (thermodynamic) in data set [2] was 41 µM (≈ 20.9 µg/mL); in data set [3], over 400 µM.

As to `COc1nc2ccc(C(O)(c3ccc(C)nc3C)c3cnnn3C)cc2c(Cl)c1CN1CC(C(F)(F)F)C1` (stereo not given), the results for the thermodynamic solubility in [2] and in [3] were 8 µM (≈ 4.38 µg/mL) and over 400 µM, respectively.

For the molecule `COc1nc2ccc(C(O)(c3cnnn3C)c3cnc(C)n3C)cc2c(Cl)c1CN1CCC(C(F)(F)F)CC1` (stereo not given), the results for the solubility (thermodynamic) in data set [2] and in [3] were 31 µM (≈ 17.5 µg/mL) and over 400 µM, respectively.

Turning to `COc1nc2ccc(C(O)(c3ccnc(C(F)(F)F)c3)c3cncn3C)cc2c(Cl)c1CN1CCC(C(F)(F)F)CC1` (stereo not given), the solubility (thermodynamic) was under 1 µM in data set [2] and over 400 µM in [3].

On to `COc1nc2ccc(C(O)(c3ccc(C)nc3C)c3cnnn3C)cc2c(Cl)c1OC(C)C` (stereo not given), for which the solubility (thermodynamic) in data set [2] is under 1 µM; in [3] it was over 400 µM.

With `COc1nc2ccc(C(O)(c3ccc(C(F)(F)F)nc3)C3CN(C(C)=O)C3)cc2c(Cl)c1CN1CCC(C(F)(F)F)CC1` (stereo not given), in data set [1], the inhibition is 94%. Further, the solubility (thermodynamic) was under 4 µM in data set [2] and over 400 µM in data set [3].

Take `COc1nc2ccc([C@@](O)(c3ccc(C(F)(F)F)nc3)c3cncn3C)cc2c(Cl)c1CN1CCC(C(F)(F)F)CC1`: the half-life in data set [4] is 9.1 h; in [8], 8.5 h. The results for the solubility (thermodynamic) in [2] and in [3] were under 1 µM and over 400 µM, respectively. Further, in data set [5], the Vd amounted to 5.7 L/kg. This molecule also gave a clearance in [6] of 7.9 mL/min/kg. The molecule further came in with a Cmax in data set [7] of 553 ng/mL. Besides, the bioavailability in data set [9] turned out to be 77%.

`COc1nc2ccc(C(O)(c3ccc(Cl)cc3)c3cncn3C)cc2c(Cl)c1Cc1ccc(-n2cccn2)cc1` (stereo not given): the half-life in [4] and in data set [8] was 5.6 h in each case. Further, the solubility (thermodynamic) in data set [2] and in data set [3] was under 1 µM each time. In addition, the Vd in [5] was determined as 4.3 L/kg. This molecule also displayed a clearance in data set [6] of 11.5 mL/min/kg. Further, the Cmax in [7] came to 262 ng/mL. The molecule further yielded a bioavailability in data set [9] of 42%.

`COc1nc2ccc(C(O)(c3cnc(C)n3C)c3cnc(C)n3C)cc2c(Cl)c1CN1CCC(C(F)(F)F)CC1`: the solubility (thermodynamic) was 4 to 7 µM (≈ 2.31 to 4.04 µg/mL) in data set [2] and over 400 µM in data set [3].

Take `COc1nc2ccc(C(O)(c3ccc(C)nc3C)c3cnnn3C)cc2c(Cl)c1C(=O)N1CCC(C(F)(F)F)CC1` (stereo not given): the hepatic extraction ratio in [10] and in data set [12] was 0.8 each time. Also, the solubility (thermodynamic) in [2] is 60 µM (≈ 35.3 µg/mL); in data set [3], over 400 µM. Further, in [11], the IC50 amounted to 386 nM. Besides, the inhibition in data set [13] turned out to be 66%.

Consider `COc1nc2ccc(C(O)(c3ccc(C)nc3C)c3cnnn3C)cc2c(Cl)c1Cc1ccc(C(F)(F)F)cc1` (stereo not given), for which the solubility (thermodynamic) in data set [2] is under 1 µM; in data set [3], 202 µM (≈ 115 µg/mL). Moreover, the inhibition in [14] was found to be 100%.

With `COc1nc2ccc(C(O)(c3ccc(C)nc3C)c3cnnn3C)cc2c(Cl)c1OCc1nccs1` (stereo not given), the solubility (thermodynamic) in data set [2] was under 4 µM; in [3], over 400 µM.

Regarding `COc1nc2ccc(C(O)(c3ccc(C)nc3C)c3cnnn3C)cc2c(Cl)c1CC1CCS(=O)(=O)CC1` (stereo not given), the hepatic extraction ratio in data set [10] was 0.9; in data set [12], 0.7. The solubility (thermodynamic) was 13 µM (≈ 7.23 µg/mL) in data set [2] and 387 µM (≈ 215 µg/mL) in data set [3]. Further, it took 280 nM to reach half-maximal inhibition in data set [11] (IC50).

On to `COc1nc2ccc(C(O)(c3ccc(C)nc3C)c3cnnn3C)cc2c(Cl)c1OCC1CC1(F)F` (stereo not given), for which the solubility (thermodynamic) in data set [2] was under 4 µM; in [3], 371 µM (≈ 191 µg/mL).

`COc1nc2ccc(C(O)(c3ccc(C)nc3C)c3cnnn3C)cc2c(Cl)c1CC(C)C` (stereo not given): the thermodynamic solubility is under 1 µM in data set [2] and over 400 µM in data set [3].

As to `COc1nc2ccc(C(O)(c3cnc(C)n3C)C3CN(C(C)=O)C3)cc2c(Cl)c1CN1CCC(C(F)(F)F)CC1` (stereo not given), the solubility (thermodynamic) in data set [2] and in data set [3] was over 400 µM each time.

On to `COc1nc2ccc(C(O)(c3ccc(C)nc3C)c3cnnn3C)cc2c(Cl)c1OCC1CC1` (stereo not given), for which the thermodynamic solubility in data set [2] is under 1 µM; in data set [3], over 400 µM.

In the case of `COc1nc2ccc(C(O)(c3ccc(C)nc3C)c3cnnn3C)cc2c(Cl)c1CC1CC1` (stereo not given), the figures for the thermodynamic solubility in data set [2] and in data set [3] were under 1 µM and over 400 µM, respectively.

For `COc1nc2ccc(C(O)(c3ccc(C)nc3C)c3cnnn3C)cc2c(Cl)c1C1CCCC1` (stereo not given), the solubility (thermodynamic) was under 4 µM in data set [2] and 273 µM (≈ 130 µg/mL) in [3].

Turning to `COc1nc2ccc(C(O)(c3cnc(C)n3C)C3CCOCC3)cc2c(Cl)c1CN1CCC(C(F)(F)F)CC1` (stereo not given), the values for the solubility (thermodynamic) in data set [2] and in data set [3] were 283 µM (≈ 160 µg/mL) and over 400 µM, respectively.

As for `COc1nc2ccc(C(O)(c3ccc(C)nc3C)c3cnnn3C)cc2c(Cl)c1C` (stereo not given), the thermodynamic solubility was under 4 µM in data set [2] and over 400 µM in [3].

On to `COc1nc2ccc(C(O)(c3cc(C)nc(C)c3)c3cnnn3C)cc2c(Cl)c1CN1CCC(C(F)(F)F)CC1` (stereo not given), for which the thermodynamic solubility in data set [2] is under 1 µM; in data set [3] it was over 400 µM.

Take `COc1nc2ccc(C(O)(c3ccc(C)nc3C)c3cnnn3C)cc2c(Cl)c1OCc1ncccn1` (stereo not given): the thermodynamic solubility in data set [2] is 336 µM (≈ 174 µg/mL); in [3], over 400 µM.

As to `COc1nc2ccc(C(O)(c3ccc(C)nc3C)c3cnnn3C)cc2c(Cl)c1CC1CCC(F)(F)CC1` (stereo not given), the thermodynamic solubility in data set [2] is under 1 µM; in data set [3] it was over 400 µM.

Regarding `COc1nc2ccc(C(O)(c3ccc(C)nc3C)c3cnnn3C)cc2c(Cl)c1CC(F)(F)F` (stereo not given), the thermodynamic solubility in data set [2] was under 4 µM; in data set [3] it was 395 µM (≈ 194 µg/mL).
